Measured values as given in paper PMC4085599, “Preliminary Studies on Validation of Calu-3 Cell Line as a Model for Screening Respiratory Mucosa Irritation and Toxicity” (Pharmaceutics, 2014).
Where two headings read alike, the source gives them in different places.

Legend:
Calu-3 cells = experiment: MTT cell viability assay on Calu-3 cells after exposure to test solutions; format: cell-based, Human; settings: for Calu-3 model prediction (irritant if viability 50% and below) compared with European Union class / Calu-3 cells killed: 60 min exposure; for Calu-3 model prediction (irritant if viability 50% and below) compared with European Union class: ECVAM protocol; for Calu-3 %Viability ± SD: 60 min incubation, MTT, relative to negative control, n = 4; for Calu-3 cells killed: 0.2% w/v
Experimental: (§1) The Calu-3 cells were used at passages 5–10. They were cultured in 96-well plates (Fisher Scientific) in 1:1 DMEM/F-12 supplemented with 10% FBS, 1% Glutamax®, 100 U/mL penicillin, and […] streptomycin using our previously described method. The tissue culture medium was changed every two days.
(§2) Irritant selection, concentration and exposure time were based on mucociliary clearance time and published work in which the compounds were used. […] In order to provide a basis for comparison with other published work using other models three concentrations of the chemicals were selected (0.2%, 0.4% and 1.0%). To initiate the experiments, the cells were washed 3 times with PBS and allowed to equilibrate in 100 µL of buffered DMEM/F-12 (without phenol red) for 30 min. […] Cells were observed under the microscope for detachment before discarding the test solutions. Subsequently, the effect of the test compounds on the cells was determined using MTT assay.
(§3) Cell viability screening was based on cellular mitochondrial dehydrogenase (MDH) activity, measured by MTT reduction and conversion to blue formazan salt that was quantified after extraction from cells. MTT was used for predicting respiratory irritation because several studies have shown correlation between reduction in cell viability, decrease in epithelial electrical resistance and increases in biomarkers such as IL-1α and IL-1β. Cells grown in 96-well plates were used for the studies. After exposure of the cells to the solution of test compounds, the solutions were discarded and 100 μL of MTT (5.0 mg/mL) added to each well and incubated for 3 h at 37 °C. Subsequently, the MTT solution was removed and replaced with 100 μL isopropyl alcohol. The plates were then wrapped in aluminium foil and incubated for 2 h at 37 °C in order to extract formazan from the cells. Extracted formazan salt was quantified spectrophotometrically at 570 nm using Synergy™ HT multimode microplate reader (BioTek Instruments Incorporated). The absorbance of isopropyl alcohol (100 μL) was used as blank. The reduction of cell viability in treated cells was compared to negative control (cells incubated with DMEM/F-12) and expressed as a percentage.
(§4) Data acceptance criteria, calculation steps, interpretation and prediction model was done using the ECVAM Skin irritation Validation Study as contained in Standard Operating Procedure of Validation of the EpiSkin™ Test Method ^15 min–42 h for the prediction of acute skin irritation of chemicals. This was chosen because the model, as well as the cell viability assay method (MTT) has been accepted by intergovernmental agencies as being able to distinguish between irritants and non-irritants. However, we modified drug exposure time to reflect respiratory route of administration (15–60 min). […] Test compounds with mean relative viability values of 50% and below were considered irritant (I); those above 50% were considered non-irritant (NI) according to the ECVAM protocol.

eye = tested on: eye; parameters: method as in PMID 12140180; settings: ECETOC eye irritation data bank, ref [12], cited from earlier work; for European Union Irritation Class: R41 Risk of Serious Damage to Eye / European Union Irritation Class: Non-Irritating / European Union Irritation Class: R36 Irritating to Eye: tick = compound belongs to this class
[1] = MTT cell viability assay on Calu-3 cells after exposure to test solutions; format: cell-based, Human; settings: human, 60 min incubation, MTT, relative to negative control, n = 4, read-out: Calu-3 %Viability ± SD; for viability at 60 min, 0.2 % w/v: 0.2% w/v test solution; for viability at 60 min, 1 % w/v: 1.0% w/v test solution
Experimental: as §1, §2, §3, §4

[2] = parameters: method as in earlier work; settings: ref [19],[20], cited from earlier work
Arion lusitanicus = tested on: Arion lusitanicus; parameters: method as in Adriaens and Remon (2002) [12]; settings: slug mucosal irritation model; ref Adriaens and Remon (2002) [12]; cited from earlier work

Compound	Calu-3 model prediction (irritant if viability 50% and below) compared with European Union class (Calu-3 cells; 0.2% w/v test solution)	Calu-3 %Viability ± SD (Calu-3 cells; 0.2% w/v test solution)	Calu-3 model prediction (irritant if viability 50% and below) compared with European Union class (Calu-3 cells; 1.0% w/v test solution)	Calu-3 %Viability ± SD (Calu-3 cells; 1.0% w/v test solution)	European Union Class (eye; as listed in Table 2)	European Union Class (eye; as listed in Table 3)	European Union Irritation Class: R41 Risk of Serious Damage to Eye (eye)	viability at 60 min, 0.2 % w/v ([1]; Calu-3 cells)	viability at 60 min, 1 % w/v ([1]; Calu-3 cells)	European Union Irritation Class: Non-Irritating (eye)	Log p Octanol–Water [2]	SMI model prediction compared with European Union class (Arion lusitanicus)	Calu-3 %Viability ± SD (Calu-3 cells; 0.2% w/v test solution, listed as acetone)	European Union Irritation Class: R36 Irritating to Eye (eye)	Log p Octanol–Water ([2]; listed as acetone)	Calu-3 cells killed (Calu-3 cells)	Calu-3 %Viability ± SD (Calu-3 cells; 1.0% w/v test solution, listed as sodium dodecyl sulphate USP)	Calu-3 %Viability ± SD (Calu-3 cells; 1.0% w/v test solution, listed as sodium hydroxide)	viability at 60 min, 1 % w/v [1]
O=C([O-])C(=O)[O-].[Na+].[Na+] [Sodium oxalate]	false negative	65.4 ± 4.0%	false negatives	64.5 ± 11.5%	R41	R41	√	–	–	–	–	–	–	–	–	–	–	–	–
CCCC(C)CO (stereo not drawn) [2-Methyl-1-pentanol]	correctly predicted	95.0 ± 13.1%	false positive	–	–	–	–	95.3 ± 13.1%	2.9 ± 0.2%	√	1.75	–	–	–	–	–	–	–	–
CC(=O)CC(C)C [Methyl isobutyl ketone]	correctly identified as non-irritant	no significant effect on the cell viability	–	–	–	–	–	73.2 ± 7.4%	90.3 ± 7.1%	√	–	wrongly classified	–	–	–	–	–	–	–
CCO [Anhydrous ethanol]	correctly predicted	99.1 ± 3.9%	–	90.3 ± 8.0%	–	–	–	–	–	√	–	–	–	–	–	–	–	–	–
PEG 600	correctly predicted	85.9 ± 13.4%	–	81.7 ± 10.8%	–	–	–	–	–	√	−1.21	–	–	–	–	–	–	–	–
OCC(O)CO [Glycerol]	correctly predicted	–	–	–	–	–	–	85.6 ± 8.7%	86.5 ± 7%	√	–	–	–	–	–	–	–	–	–
CC(C)=O [Acetone]	false negative	100.4 ± 13.7%	false negatives	95.4 ± 16.5%	R36	R36	–	–	–	–	−0.24	false negative	no significant effect on the cell viability	√	negative Log p values	–	–	–	–
c1c[nH]cn1 [Imidazole]	–	–	–	–	R41	R41	–	–	–	–	–	–	–	–	–	–	–	–	–
CCCCCCCCCCCCOS(=O)(=O)[O-].[Na+] [Sodium dodecyl sulphate USP]	correctly predicted	4.3 ± 0.1%	correctly predicted	9.0 ± 0.1%	R36	R36	–	–	–	–	1.60	over-predictions	–	√	–	more than 90%	less than 17%	–	–
Triton X-100	correctly predicted	3.5 ± 0.5%	correctly predicted	–	R36	R36	–	–	–	–	4.15	over-predictions	–	√	–	more than 90%	–	–	–
[Na+].[OH-] [Sodium hydroxide]	–	4.6 ± 0.4%	correctly predicted	14.9 ± 1.2%	R41	R41	√	–	–	–	0	–	–	–	–	about 95%	–	less than 17%	–
CCCCCCCCCCCCCCCC[n+]1ccccc1 [Cetylpyridinium bromide]	correctly predicted	–	correctly predicted	–	R41	R41	√	8.1 ± 1.1%	5.4 ± 0.6%	–	1.83	correct predictions	–	–	–	–	–	–	< 17%
Cc1ccccc1 [Toluene]	–	–	–	–	–	–	–	85.7 ± 13%	110 ± 6.6%	√	–	–	–	–	–	–	–	–	–
COCC(O)CO (stereo not drawn) [3-Methoxy-1,2-propanediol]	correctly predicted	–	–	–	–	–	–	92.6 ± 4.1%	90.7 ± 4.3%	√	−1.20	–	–	–	–	–	–	–	–
Nc1ccc(F)cc1 [4-Fluoroaniline]	false negatives	–	false negatives	–	R41	R41	√	115 ± 5.9%	75.6 ± 10.9%	–	–	–	–	–	–	–	–	–	–
PEG 400	correctly predicted	91.5 ± 4.6%	–	92.2 ± 15.9%	–	–	–	–	–	√	−1.21	–	–	–	–	–	–	–	–
Tween 20	correctly predicted	57.1 ± 8.1%	false positive	43.9 ± 2.5%	–	–	–	–	–	√	2.39	correct predictions	–	–	–	–	–	–	–
OC1CCCCC1 [Cyclohexanol]	false negatives	89.9 ± 14.3%	false negatives	78.7 ± 11.7%	R41	R41	√	–	–	–	1.23	–	–	–	–	–	–	–	–
